Series [1] addresses T1, XIAP BIR3 protein (Homo sapiens, UniProt P98170). Put plainly: Fluorescence polarization competitive binding assay to XIAP BIR3. The following applies: FP competitive binding, SM5F or SM-F1 as the tracer.
Source text: A sensitive and quantitative in vitro binding assay using the fluorescence polarization (FP) based method was used to determine the binding affinity of Smac mimetics to XIAP protein (Nikolovska-Coleska et al., Anal. Biochem. 332:261-73 (2004)). For this assay, 5-carboxyfluorescein (5-Fam) was coupled to the lysine side chain of the mutated Smac peptide, AbuRPF-K-(5-Fam)-NH2 (termed SM5F). Another fluorescently tagged Smac mimetic (termed SM-F1) with higher affinities than SM5F was also used.
(§1) In competitive binding experiments using SM5F as the tracer to XIAP BIR3 protein, the tested compound was incubated with XIAP BIR3 protein (30 nM) and SM5F (5 nM) in the assay buffer (100 mM potassium phosphate, pH 7.5; 100 μg/ml bovine gamma globulin; 0.02% sodium azide, Invitrogen). Dose-dependent competitive binding FP experiments were carried out with serial dilutions of tested compounds. For each assay, the bound peptide control containing recombinant XIAP BIR3 protein and SM5F (equivalent to 0% inhibition) and free peptide control containing only free SM5F (equivalent to 100% inhibition) will be included. The polarization values were measured after 3 hrs of incubation when the binding reached equilibrium using an ULTRA READER (Tecan U.S. Inc., Research Triangle Park, N.C.). IC50 values, the inhibitor concentration at which 50% of bound peptide is displaced, will be determined from a plot using nonlinear least-squares analysis. Curve fitting will be performed using GRAPHPAD PRISM software (GraphPad Software, Inc., San Diego, Calif.).
as §1, with “using SM-F1” for “using SM5F”, “protein (10” for “protein (30”, “and SM-1F (2” for “and SM5F (5”, “and SM-1F” for “and SM5F”, “free SM-1F” for “free SM5F”
Negative controls containing protein/tracer complex only (equivalent to 0% inhibition), and positive controls containing only free tracers (equivalent to 100% inhibition), were included in each assay plate. FP values were measured as described above. IC50 values were determined by nonlinear regression fitting of the competition curves. The Ki values of competitive inhibitors were calculated using the equation described before (Nikolovska-Coleska et al., Anal. Biochem. 332:261-73 (2004)), based upon the measured IC50 values, the Kd values of the tracer to different proteins, and the concentrations of the proteins and tracers in the competitive assays. Ki values were also calculated using a commonly used equation known in the literature (Huang, X. J. Biomol. Screen. 8:34-38 (2003)).

Series [2] has as its target T2, cIAP1 BIR3 domain (residues 253-363) (Homo sapiens, UniProt Q13490).
T2 construct: The recombinant cIAP1 BIR3 domain (residues 253-363); His-tag
Description: Fluorescence polarization competitive binding assay to cIAP1 BIR3. To be noted: FP competitive binding, SM5F or SM-F1 as the tracer. As for the experimental part: (§2) In order to test the binding ability of conformationally constrained Smac mimetics to other IAP proteins (cIAP1 and cIAP2) binding assay conditions were developed. The recombinant cIAP1 BIR3 domain (residues 253-363), cIAP2 BIR3 domain (residues 238-349), fused to a His-tag, were used in the binding assays. Competitive binding assays for other IAP proteins are performed similarly as that described for XIAP BIR3.
(§3) In competitive binding experiments using SM5F as the tracer to cIAP-1 BIR3 protein, the tested compound was incubated with cIAP-1 BIR3 protein (10 nM) and SM5F (2 nM) in the assay buffer. In competitive binding experiments using SM5F as the tracer to cIAP-2 BIR3 protein, the tested compound was incubated with cIAP-2 BIR3 protein (25 nM) and SM5F (2 nM) in the assay buffer. All other procedures for cIAP-1 BIR3 and cIAP-2 BIR3 proteins were the same as those used for XIAP BIR3 protein competitive assays.
(§4) In competitive binding experiments using SM-F1 as the tracer to cIAP-1 BIR3 protein, the tested compound was incubated with cIAP-1 BIR3 protein (3 nM) and SM-F1 (1 nM) in the assay buffer. In competitive binding experiments using SM-F1 as the tracer to cIAP-2 BIR3 protein, the tested compound was incubated with cIAP-2 BIR3 protein (5 nM) and SM-F1 (1 nM) in the assay buffer.

Series [3] addresses T3, cIAP2 BIR3 domain (residues 238-349) (Homo sapiens, UniProt Q13489).
T3 construct: cIAP2 BIR3 domain (residues 238-349); His-tag
Description: Fluorescence polarization competitive binding assay to cIAP2 BIR3. The following applies: FP competitive binding, SM5F or SM-F1 as the tracer. As to the method: as §2, §3, §4

The subject of series [4] is MDA-MB-231 human breast cancer cell line. Put plainly: Cell growth inhibition, WST-8 assay. Type of series: cell-based. To be noted: MDA-MB-231, 96 h, 4 days. As for the experimental part:
(§5) The effect of the compounds of the present invention on the growth of various cancer cell lines was tested. Cells were seeded in 96-well flat bottom cell culture plates at a density of 3000 cells/well with a tested compound and incubated at 37° C. in an atmosphere of 95% air and 5% CO2 for 4 days. The rate of cell growth inhibition after treatment with different concentrations of the compound was determined using a WST-8 kit (2-(2-methoxy-4-nitrophenyl)-3-(4-nitrophenyl)-5-(2, 4 disulfophenyl)-2H-tetrazolium monosodium salt; Dojindo Molecular Technologies, Inc., Gaithersburg, Md.). WST-8 was added at a final concentration of 10% to each well, and then the plates were incubated at 37° C. for 2-3 hrs. The absorbance of the samples was measured at 450 nm using a ULTRA Tecan Reader (Molecular Device). The concentration of the tested compound that inhibited cell growth by 50% (IC50) was calculated by comparing absorbance in untreated cells and the cells treated with the tested compound.

The subject of series [5] is SK-OV-3 ovarian cancer cell line. Description: Cell growth inhibition, WST-8 assay. Type of series: cell-based. The following applies: Homo sapiens, SK-OV-3, 96 h, 4 days. As to the method: as §5
For series [6], the system named is breast cancer MDA-MB-231 cell line. Put plainly: Induction of cell death, trypan blue exclusion assay. Format: cell-based, human. The following applies: MDA-MB-231, 48 hours, FIG. 3. As for the experimental part: (§6) The ability of SM-1238 to induce cell death was tested in the breast cancer MDA-MB-231 and ovarian cancer SK-OV-3 cell lines (FIG. 3). Cells were treated with SM-1238 for 48 hours and cell viability was determined using the trypan blue exclusion assay.

Series [7] has as its system ovarian cancer SK-OV-3 cell line. The description is as above. To be noted: SK-OV-3, 48 hours, FIG. 3. Format: cell-based, human. As to the method: as §6
Series [8] is described as follows: Pharmacokinetics in rats following oral administration. To be noted: rat, in vivo, male Sprague-Dawley rats, 25 mg/kg, mean±SD; for AUC(0-inf) / Cmax / Tmax: n=3; for half-life: n=3, read-out: half-life (T½) (converted).
The target of series [9] is T1, XIAP BIR3 protein. To be noted: tracer SM5F; Nikolovska-Coleska et al. 2004; cited from earlier work.
T1 sequence (P98170 241-356 limits assumed): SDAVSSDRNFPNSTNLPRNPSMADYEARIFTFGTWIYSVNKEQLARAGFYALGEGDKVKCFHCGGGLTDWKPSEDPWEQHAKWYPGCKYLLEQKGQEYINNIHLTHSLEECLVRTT
A further series concerns the target T4, recombinant cIAP-1 BIR3 (Homo sapiens, UniProt Q13490).
T4 construct: The recombinant cIAP1 BIR3 domain (residues 253-363); His-tag
The following applies: tracer SM5F; Peng et al. 2008; cited from earlier work.

In the next series the target is T5, recombinant cIAP-2 BIR3 (Homo sapiens, UniProt Q13489).
T5 construct: cIAP2 BIR3 domain (residues 238-349); His-tag
T5 sequence (Q13489 238-349): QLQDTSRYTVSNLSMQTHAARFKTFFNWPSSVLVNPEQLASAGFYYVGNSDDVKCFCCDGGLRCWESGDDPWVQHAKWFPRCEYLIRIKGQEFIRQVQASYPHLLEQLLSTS
The following applies: tracer SM5F; Peng et al. 2008; cited from earlier work.

A further series deals with XIAP BIR3. The following applies: background statement; cited from earlier work.

A value given as a limit tells only on which side of the number the result lay.

T1 sequence (P98170 241-356 limits assumed): as the sequence (P98170 241-356 limits assumed) above
T2 sequence (Q13490 253-363): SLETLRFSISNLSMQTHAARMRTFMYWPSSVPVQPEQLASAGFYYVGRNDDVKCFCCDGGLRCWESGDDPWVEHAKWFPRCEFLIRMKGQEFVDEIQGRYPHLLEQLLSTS
T3 sequence (Q13489 238-349): as the sequence (Q13489 238-349) above
T4 sequence (Q13490 253-363): as the sequence (Q13490 253-363) above

Turning to `CN[C@@H](C)C(=O)N[C@H]1CN(C(=O)CC(C)C)CC[C@H]2CC[C@@H](c3nc4c(-c5ccccc5)cccc4[nH]3)N2C1=O` [SM-1238], the IC50 was less than 200 nM at XIAP BIR3 protein [1]; less than 100 nM in series [2]; less than 100 nM in series [3]; less than 3000 nM in [4]; less than 3000 nM in [5]. In addition, the “induction of cell death” value in series [6] and in [7] was “induced cell death in both cell lines in a concentration-dependant fashion” throughout. Besides, in series [8], the AUC(0-inf) worked out at 7100 ± 931 ng·h/mL. The same molecule gave a Cmax in series [8] of 831 ± 135 ng/mL. The Tmax in series [8] amounted to 2 ± 1.7 h. In addition, in series [8], the half-life is 3.7 ± 2 h.
For AbuRPF-K-(5-Fam)-NH2 [SM5F], the Kd is 17.9 nM on XIAP BIR3 protein [9], 4.1 nM at recombinant cIAP-1 BIR3 and 6.6 nM at recombinant cIAP-2 BIR3.
For the molecule `CN[C@@H](C)C(=O)N[C@H]1CN(C(=O)Cc2ccc(F)cc2)CC[C@H]2CC[C@@H](c3nc4c(-c5ccccc5)cccc4[nH]3)N2C1=O` [SM-1268], the IC50 is less than 500 nM at XIAP BIR3 protein [1]; less than 100 nM in [2]; less than 100 nM in series [3]; less than 3000 nM in series [4]; less than 3000 nM in series [5]. Also, in series [8], the AUC(0-inf) is 6490 ± 965 ng·h/mL. The molecule also gave a Cmax in series [8] of 612 ± 16 ng/mL. Besides, the Tmax in series [8] worked out at 2 h. Also, the half-life in series [8] was 4.2 ± 1 h.

B1: mature Smac protein: mature Smac/DIABLO protein, endogenous inhibitor of XIAP (protein, UniProt Q9NR28 22-239, looked up)
Diablo IAP-binding …: LCVPVVANFKKRCFSELIRPWHKTVTIGFGVTLCAVPIAQKSEPHSLSSEALMRRAVSLVTDSTSTFLSQTTYALIEAITEYTKAVYTLTSLYRQYTSLLGKMNSEEEDEVWQVIIGARAEMTSKHQEYLKLETTWMTAVGLSEMAAEAAYQTGADQASITARNHIQLVKLQVEEVHQLSRKAETKLAEAQIEELRQKTQEEGEERAESEQEAYLRED
As for B1, at XIAP BIR3, the Kd was 420 nM.
